Our source for the IC50 values is ChEMBL document CHEMBL1151079, “On the mechanism of activation of designed enediynes with selective cytotoxicity” (Bioorg Med Chem Lett, 1992).

Assay [1] relates to NHDF. Briefly: (§1) Compound tested for cytotoxic Activity against NHDF cell line. It is filed as functional, cell-based. Particulars: Homo sapiens.
Another assay deals with HT-29. Briefly: Compound tested for cytotoxic Activity against HT-29 cell line from colon carcinoma. Particulars: Homo sapiens. Type of assay: functional, cell-based.
For a further assay, the system named is OVCAR-3. Briefly: Compound tested for cytotoxic Activity against Ovcar-3 cell line from ovarian carcinoma. Type of assay: functional, cell-based. The settings on record: Homo sapiens.
The next assay has as its system SK-MEL-28. Briefly: Compound tested for cytotoxic Activity against SK-Mel-28 cell line from melanoma. Type of assay: functional, cell-based. Particulars: Homo sapiens.
For another assay, the system named is P388. Put plainly: Compound tested for cytotoxic Activity against P-388 cell line from mouse leukemia. It is filed as functional, cell-based.
The test system of a further assay is HL-60. Briefly: Compound tested for cytotoxic Activity against HL-60 cell line from promyelocytic leukemia. Particulars: Homo sapiens. Type of assay: functional, cell-based.
In the next assay the test system is UCLA P-3. Put plainly: Compound tested for cytotoxic Activity against UCLA-P3 cell line from lung carcinoma. It is filed as functional, cell-based. Particulars: Homo sapiens.
The test system of a further assay is CAPAN-1. Briefly: Compound tested for cytotoxic Activity against Capan-l cell line from pancreatic carcinoma. It is filed as functional, cell-based. The settings on record: Homo sapiens.
A further assay concerns MCF7. Briefly: Compound tested for cytotoxic Activity against MCF-7 cell line from breast carcinoma. It is filed as functional, cell-based. Particulars: Homo sapiens.
Assay [2] deals with CHO. Briefly: (§2) Compound tested for cytotoxic Activity against CHO cell line. Type of assay: functional, cell-based. Particulars: Cricetulus griseus.
For another assay, the system named is MOLT-4. Put plainly: Compound tested for cytotoxic Activity against Molt-4 cell line from T cell leukemia. Particulars: Homo sapiens. Type of assay: functional, cell-based.
In assay [3] the test system is H322. Briefly: Compound tested for cytotoxic Activity against H-322 cell line from lung carcinoma. Particulars: Homo sapiens, NCI-H322. It is filed as functional, cell-based.
For assay [4], the system named is H322. Put plainly: Compound tested for cytotoxic Activity against H-322 cell line from lung carcinoma; Non toxic. It is filed as functional, cell-based, Homo sapiens.
Assay [5] relates to NHDF. The assay is described as §1. Particulars: Homo sapiens. It is filed as cell-based.
The test system of assay [6] is CHO. Described as §2. Particulars: Cricetulus griseus. It is filed as cell-based.
For assay [7], the system named is NHDF. Briefly: Compound tested for cytotoxic Activity against NHDF cell line; Not toxic. It is filed as functional, cell-based, Homo sapiens.
For assay [8], the system named is CHO. Briefly: Compound tested for cytotoxic Activity against CHO cell line; Not toxic. Type of assay: functional, cell-based, Cricetulus griseus.

Usually IC50 stands for the concentration that inhibits the measured activity by half. As for `C[C@@H](COC(=O)N1c2ccccc2[C@@]23O[C@]24CCC[C@@H]3C#C/C=C\C#C[C@H]14)S(=O)(=O)c1ccccc1`, the IC50 in the assay with NHDF [1] was determined as 1000 µM; in the assay with HT-29, 0.78 µM; in the assay on OVCAR-3, 3.1 µM; in the assay with SK-MEL-28, 50 µM; in the assay with P388, 1.6 µM; in the assay on HL-60, 0.78 µM. The IC50 worked out at 3.1 µM with UCLA P-3; 3.1 µM in the assay with CAPAN-1; 25 µM in the assay with MCF7; 1000 µM with CHO [2]; 0.01 µM in the assay with MOLT-4; 13 µM with H322 [3].
Regarding `C[C@H](COC(=O)N1c2ccccc2[C@@]23O[C@]24CCC[C@@H]3C#C/C=C\C#C[C@H]14)S(=O)(=O)c1ccccc1`, the half-maximal inhibitory concentration (IC50) is above 1000 µM in the assay on NHDF [1]; 13 µM with HT-29; 13 µM in the assay on OVCAR-3; above 1000 µM in the assay on SK-MEL-28; 1.6 µM in the assay on P388; 1.6 µM with HL-60. For the same compound, the IC50 entry with H322 [4] is “Non-toxic”; in the assay with UCLA P-3, 13 µM; in the assay on CAPAN-1, 6.3 µM; in the assay on MCF7, above 1000 µM; in the assay on CHO [2] it was above 1000 µM; in the assay on MOLT-4 it was 10 µM.
In the case of `O=C(OCCS(=O)(=O)c1ccccc1)N1c2ccccc2[C@@]23O[C@]24CCC[C@@H]3C#C/C=C\C#C[C@H]14`, the IC50 in the assay on HT-29 is 0.39 µM; with NHDF [5], 6.3 µM; in the assay on OVCAR-3 it was 0.78 µM; in the assay with SK-MEL-28 it was 63 µM; in the assay on CHO [6], 6.3 µM; in the assay with P388, 0.098 µM. For the same compound, the IC50 in the assay with HL-60 was 0.098 µM; in the assay with UCLA P-3, 0.78 µM; in the assay with CAPAN-1, 0.078 µM; in the assay with MCF7, 3.1 µM; with MOLT-4 it was 1e-05 µM; with H322 [3] it was 3.1 µM.
Turning to `CC(C)(COC(=O)N1c2ccccc2[C@@]23O[C@]24CCC[C@@H]3C#C/C=C\C#C[C@H]14)S(=O)(=O)c1ccccc1`, the IC50 entry in the assay with NHDF [7] was “Non-toxic”; in the assay with HT-29, 25 µM; with OVCAR-3, 50 µM; in the assay with SK-MEL-28, below 1000 µM; with P388 it was 13 µM; in the assay with HL-60, 25 µM. Further, the IC50 result in the assay with CHO [8] is “Non-toxic”; with UCLA P-3 it was 50 µM; with CAPAN-1, 50 µM; with MCF7, 25 µM; in the assay with MOLT-4, 1000 µM; in the assay with H322 [3] it was 50 µM.
